Reference: paper PMC11277489, “Novel Piperazine Derivatives of Vindoline as Anticancer Agents” (International Journal of Molecular Sciences, 2024)

Tested on: RXF 393
Assay: NCI60 one-dose screen (10 μM), Renal Cancer
Type: cell-based, human
Conditions: Homo sapiens; 10 μM; RXF 393, Renal Cancer; read-out: Growth percent rate

SMILES	activity at 10 µM [%]
CC[C@]12C=CCN3CC[C@@]4(c5ccc(OC)cc5N(C)[C@H]4[C@@](O)(C(=O)OC)[C@@H]1OC(=O)CCCN1CCN(C(=O)c4ccco4)CC1)[C@@H]32 [Compound 26]	102

Tested on: A498
Assay: NCI60 one-dose screen (10 μM), Renal Cancer
Type: cell-based
Conditions: Homo sapiens; 10 μM; A498, Renal Cancer; read-out: Growth percent rate

SMILES	activity at 10 µM [%]
CC[C@]12C=CCN3CC[C@@]4(c5ccc(OC)cc5N(C)[C@H]4[C@@](O)(C(=O)OC)[C@@H]1OC(=O)CCCN1CCN(C(=O)c4ccco4)CC1)[C@@H]32 [Compound 26]	107

Tested on: SK-MEL-2
Assay: NCI60 one-dose screen (10 μM), Melanoma
Type: cell-based
Conditions: Homo sapiens; 10 μM; SK-MEL-2, Melanoma; read-out: Growth percent rate

SMILES	activity at 10 µM [%]
CC[C@]12C=CCN3CC[C@@]4(c5ccc(OC)cc5N(C)[C@H]4[C@@](O)(C(=O)OC)[C@@H]1OC(=O)CCCN1CCN(C(=O)c4ccco4)CC1)[C@@H]32 [Compound 26]	109

Tested on: HL-60(TB)
Assay: NCI60 one-dose screen (10 μM), Leukemia
Type: cell-based
Conditions: Homo sapiens; 10 μM; HL-60(TB), Leukemia; read-out: Growth percent rate

SMILES	activity at 10 µM [%]
CC[C@]12C=CCN3CC[C@@]4(c5ccc(OC)cc5N(C)[C@H]4[C@@](O)(C(=O)OC)[C@@H]1OC(=O)CCCN1CCN(C(=O)c4ccco4)CC1)[C@@H]32 [Compound 26]	93.8

Tested on: MOLT-4
Assay: NCI60 one-dose screen (10 μM), Leukemia
Type: cell-based, human
Conditions: Homo sapiens; 10 μM; MOLT-4, Leukemia; read-out: Growth percent rate

SMILES	activity at 10 µM [%]
CC[C@]12C=CCN3CC[C@@]4(c5ccc(OC)cc5N(C)[C@H]4[C@@](O)(C(=O)OC)[C@@H]1OC(=O)CCCN1CCN(C(=O)c4ccco4)CC1)[C@@H]32 [Compound 26]	77.3

Tested on: U251
Assay: NCI60 one-dose screen (10 μM), CNS Cancer
Type: cell-based
Conditions: Homo sapiens, U-251; 10 μM; U251, CNS Cancer; read-out: Growth percent rate

SMILES	activity at 10 µM [%]
CC[C@]12C=CCN3CC[C@@]4(c5ccc(OC)cc5N(C)[C@H]4[C@@](O)(C(=O)OC)[C@@H]1OC(=O)CCCN1CCN(C(=O)c4ccco4)CC1)[C@@H]32 [Compound 26]	93.4

Tested on: OVCAR-8
Assay: NCI60 one-dose screen (10 μM), Ovarian Cancer
Type: cell-based
Conditions: Homo sapiens; 10 μM; OVCAR-8, Ovarian Cancer; read-out: Growth percent rate

SMILES	activity at 10 µM [%]
CC[C@]12C=CCN3CC[C@@]4(c5ccc(OC)cc5N(C)[C@H]4[C@@](O)(C(=O)OC)[C@@H]1OC(=O)CCCN1CCN(C(=O)c4ccco4)CC1)[C@@H]32 [Compound 26]	104

Tested on: NCI-H460
Assay: NCI60 one-dose screen (10 μM), Non-small Cell Lung Cancer
Type: cell-based
Conditions: Homo sapiens; 10 μM; NCI-H460, Non-small Cell Lung Cancer; read-out: Growth percent rate

SMILES	activity at 10 µM [%]
CC[C@]12C=CCN3CC[C@@]4(c5ccc(OC)cc5N(C)[C@H]4[C@@](O)(C(=O)OC)[C@@H]1OC(=O)CCCN1CCN(C(=O)c4ccco4)CC1)[C@@H]32 [Compound 26]	112

Tested on: MCF7
Assay: NCI60 one-dose screen (10 μM), Breast Cancer
Type: cell-based
Conditions: Homo sapiens; 10 μM; MCF7, Breast Cancer; read-out: Growth percent rate

SMILES	activity at 10 µM [%]
CC[C@]12C=CCN3CC[C@@]4(c5ccc(OC)cc5N(C)[C@H]4[C@@](O)(C(=O)OC)[C@@H]1OC(=O)CCCN1CCN(C(=O)c4ccco4)CC1)[C@@H]32 [Compound 26]	88.7

Tested on: K-562
Assay: NCI60 one-dose screen (10 μM), Leukemia
Type: cell-based
Conditions: Homo sapiens, K562; 10 μM; K-562, Leukemia; read-out: Growth percent rate

SMILES	activity at 10 µM [%]
CC[C@]12C=CCN3CC[C@@]4(c5ccc(OC)cc5N(C)[C@H]4[C@@](O)(C(=O)OC)[C@@H]1OC(=O)CCCN1CCN(C(=O)c4ccco4)CC1)[C@@H]32 [Compound 26]	76.7

Tested on: ACHN
Assay: NCI60 one-dose screen (10 μM), Renal Cancer
Type: cell-based
Conditions: Homo sapiens, 10 μM, Renal Cancer, read-out: Growth percent rate

SMILES	activity at 10 µM [%]
CC[C@]12C=CCN3CC[C@@]4(c5ccc(OC)cc5N(C)[C@H]4[C@@](O)(C(=O)OC)[C@@H]1OC(=O)CCCN1CCN(C(=O)c4ccco4)CC1)[C@@H]32 [Compound 26]	103

Tested on: MALME-3M
Assay: NCI60 one-dose screen (10 μM), Melanoma
Type: cell-based
Conditions: Homo sapiens; 10 μM; MALME-3M, Melanoma; read-out: Growth percent rate

SMILES	activity at 10 µM [%]
CC[C@]12C=CCN3CC[C@@]4(c5ccc(OC)cc5N(C)[C@H]4[C@@](O)(C(=O)OC)[C@@H]1OC(=O)CCCN1CCN(C(=O)c4ccco4)CC1)[C@@H]32 [Compound 26]	102

Tested on: EKVX
Assay: NCI60 one-dose screen (10 μM), Non-small Cell Lung Cancer
Type: cell-based
Conditions: Homo sapiens, 10 μM, Non-small Cell Lung Cancer, read-out: Growth percent rate

SMILES	activity at 10 µM [%]
CC[C@]12C=CCN3CC[C@@]4(c5ccc(OC)cc5N(C)[C@H]4[C@@](O)(C(=O)OC)[C@@H]1OC(=O)CCCN1CCN(C(=O)c4ccco4)CC1)[C@@H]32 [Compound 26]	87.8

Tested on: 786–0
Assay: NCI60 one-dose screen (10 μM), Renal Cancer
Type: cell-based
Conditions: Homo sapiens; 10 μM; 786-0, Renal Cancer; read-out: Growth percent rate

SMILES	activity at 10 µM [%]
CC[C@]12C=CCN3CC[C@@]4(c5ccc(OC)cc5N(C)[C@H]4[C@@](O)(C(=O)OC)[C@@H]1OC(=O)CCCN1CCN(C(=O)c4ccco4)CC1)[C@@H]32 [Compound 26]	94.2

Tested on: OVCAR-4
Assay: NCI60 one-dose screen (10 μM), Ovarian Cancer
Type: cell-based
Conditions: Homo sapiens; 10 μM; OVCAR-4, Ovarian Cancer; read-out: Growth percent rate

SMILES	activity at 10 µM [%]
CC[C@]12C=CCN3CC[C@@]4(c5ccc(OC)cc5N(C)[C@H]4[C@@](O)(C(=O)OC)[C@@H]1OC(=O)CCCN1CCN(C(=O)c4ccco4)CC1)[C@@H]32 [Compound 26]	94

Tested on: RPMI-8226
Assay: NCI60 one-dose screen (10 μM), Leukemia
Type: cell-based
Conditions: Homo sapiens; 10 μM; RPMI-8226, Leukemia; read-out: Growth percent rate

SMILES	activity at 10 µM [%]
CC[C@]12C=CCN3CC[C@@]4(c5ccc(OC)cc5N(C)[C@H]4[C@@](O)(C(=O)OC)[C@@H]1OC(=O)CCCN1CCN(C(=O)c4ccco4)CC1)[C@@H]32 [Compound 26]	69.2

Tested on: HOP-62
Assay: NCI60 one-dose screen (10 μM), Non-small Cell Lung Cancer
Type: cell-based
Conditions: Homo sapiens; 10 μM; HOP-62, Non-small Cell Lung Cancer; read-out: Growth percent rate

SMILES	activity at 10 µM [%]
CC[C@]12C=CCN3CC[C@@]4(c5ccc(OC)cc5N(C)[C@H]4[C@@](O)(C(=O)OC)[C@@H]1OC(=O)CCCN1CCN(C(=O)c4ccco4)CC1)[C@@H]32 [Compound 26]	107

Tested on: SK-MEL-28
Assay: NCI60 one-dose screen (10 μM), Melanoma
Type: cell-based
Conditions: Homo sapiens; 10 μM; SK-MEL-28, Melanoma; read-out: Growth percent rate

SMILES	activity at 10 µM [%]
CC[C@]12C=CCN3CC[C@@]4(c5ccc(OC)cc5N(C)[C@H]4[C@@](O)(C(=O)OC)[C@@H]1OC(=O)CCCN1CCN(C(=O)c4ccco4)CC1)[C@@H]32 [Compound 26]	105

Tested on: NCI-H23
Assay: NCI60 one-dose screen (10 μM), Non-small Cell Lung Cancer
Type: cell-based
Conditions: Homo sapiens; 10 μM; NCI-H23, Non-small Cell Lung Cancer; read-out: Growth percent rate

SMILES	activity at 10 µM [%]
CC[C@]12C=CCN3CC[C@@]4(c5ccc(OC)cc5N(C)[C@H]4[C@@](O)(C(=O)OC)[C@@H]1OC(=O)CCCN1CCN(C(=O)c4ccco4)CC1)[C@@H]32 [Compound 26]	109

Tested on: 60 human tumor cell lines (NCI60)
Assay: NCI60 one-dose screen (10 μM), whole panel
Type: cell-based
Conditions: 10 μM; mean over 60 human cancer cell lines; read-out: Growth percent rate, Mean

SMILES	activity at 10 µM [%]
CC[C@]12C=CCN3CC[C@@]4(c5ccc(OC)cc5N(C)[C@H]4[C@@](O)(C(=O)OC)[C@@H]1OC(=O)CCCN1CCN(C(=O)c4ccco4)CC1)[C@@H]32 [Compound 26]	96.8

Tested on: HCT-15
Assay: NCI60 one-dose screen (10 μM), Colon Cancer
Type: cell-based
Conditions: Homo sapiens; 10 μM; HCT-15, Colon Cancer; read-out: Growth percent rate

SMILES	activity at 10 µM [%]
CC[C@]12C=CCN3CC[C@@]4(c5ccc(OC)cc5N(C)[C@H]4[C@@](O)(C(=O)OC)[C@@H]1OC(=O)CCCN1CCN(C(=O)c4ccco4)CC1)[C@@H]32 [Compound 26]	98.8
